Experimental data reported in patent US12496301B2, “Use of androgen receptor degrader for the treatment of spinal and bulbar muscular atrophy” (Arvinas Operations, Inc., priority 2023, dated 2025).
“Also recorded” adds a separate entry of the source. Where two headings read alike, the source gives them in different places.

How the values were obtained:
[1] = molecular target: T1, PDE6D (Homo sapiens, UniProt O43924); test: Global proteomics / Western blot in SBMA hiPSC-myotubes: neosubstrate PDE6D; type: cell-based; settings: hiPSC-myotubes, data not shown
T1 construct: endogenous in cells; host or cells: SBMA hiPSC-derived myotubes
T1 sequence (O43924 whole entry): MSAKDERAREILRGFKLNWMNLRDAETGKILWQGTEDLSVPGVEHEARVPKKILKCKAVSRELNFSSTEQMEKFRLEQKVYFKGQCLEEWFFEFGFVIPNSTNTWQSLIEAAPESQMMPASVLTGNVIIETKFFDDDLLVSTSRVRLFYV
Source text: (FIG. 12A). […] (FIG. 12C).

[2] = molecular target: T2, endogenous mouse AR (Mus musculus, UniProt P19091); test: Endogenous mouse AR degradation in muscle of hAR100Q mice, capillary immunoassay; type: in vivo
T2 construct: from tissue; host or cells: mouse LABC muscle (C57Bl/6 and hAR100Q mice); quadriceps (hAR100Q mice)
T2 sequence (P19091 1-899): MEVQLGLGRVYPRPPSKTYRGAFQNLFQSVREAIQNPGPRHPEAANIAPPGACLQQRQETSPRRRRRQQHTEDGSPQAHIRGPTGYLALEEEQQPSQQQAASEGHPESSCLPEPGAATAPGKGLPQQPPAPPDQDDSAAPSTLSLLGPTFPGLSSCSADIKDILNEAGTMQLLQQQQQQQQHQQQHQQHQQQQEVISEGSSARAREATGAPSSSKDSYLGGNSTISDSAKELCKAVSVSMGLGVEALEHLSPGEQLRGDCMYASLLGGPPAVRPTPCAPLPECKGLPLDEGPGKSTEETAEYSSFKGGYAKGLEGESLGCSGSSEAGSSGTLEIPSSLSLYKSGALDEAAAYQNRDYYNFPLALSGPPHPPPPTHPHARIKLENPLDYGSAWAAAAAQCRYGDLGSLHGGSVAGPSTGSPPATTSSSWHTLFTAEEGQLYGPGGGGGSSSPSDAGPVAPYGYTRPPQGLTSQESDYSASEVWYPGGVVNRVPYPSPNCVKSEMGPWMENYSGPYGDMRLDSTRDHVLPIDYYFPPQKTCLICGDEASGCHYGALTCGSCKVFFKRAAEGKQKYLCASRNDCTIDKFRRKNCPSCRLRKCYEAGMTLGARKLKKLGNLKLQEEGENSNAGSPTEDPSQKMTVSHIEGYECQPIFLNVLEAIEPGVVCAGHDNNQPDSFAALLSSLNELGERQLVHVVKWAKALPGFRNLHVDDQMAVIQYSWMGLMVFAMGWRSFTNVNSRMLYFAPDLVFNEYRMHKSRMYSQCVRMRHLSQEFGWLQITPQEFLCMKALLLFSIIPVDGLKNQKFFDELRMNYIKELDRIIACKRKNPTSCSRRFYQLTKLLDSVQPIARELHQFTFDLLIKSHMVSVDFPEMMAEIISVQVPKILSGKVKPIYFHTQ
Experimental: (§1) Mouse endogenous AR, human AR100Q, and high molecular weight hAR100Q from hAR100Q mice were quantified by capillary immunoassay. Tissue lysates were prepared as described above using antibodies to AR and resolved by capillary electrophoresis (ProteinSimple). High molecular weight AR was quantified as the area under the curve (AUC) from 300 to 600 kDa.
(§2) A parallel cohort of hAR100Q mice was maintained in order to evaluate AR degradation at the 11-week timepoint. hAR100Q mice in this tissue cohort were fed chow identical to the mice that underwent muscle strength and endurance tests and were euthanized at 11-weeks of age.

[3] = tested on: human AR100Q; test: hAR100Q (polyQ-AR) degradation in muscle of hAR100Q mice, capillary immunoassay; type: in vivo
Experimental: as §1, §2

[4] = molecular target: T3, human AR100Q (Homo sapiens, UniProt P10275, INS80QQQQQQQQQQQQQQQQQQQQQQQQQQQQQQQQQQQQQQQQQQQQQQQQQQQQQQQQQQQQQQQQQQQQQQQQQQQQQ); test: as above; type: in vivo
T3 construct: full-length human AR harboring 100 CAG repeats in exon 1 (hAR100Q); from tissue; host or cells: LABC and quadriceps muscle of transgenic hAR100Q mice (C57BL/6J background, pCAGGS promoter)
T3 sequence (P10275 with tags, fused parts or gaps with the stated changes): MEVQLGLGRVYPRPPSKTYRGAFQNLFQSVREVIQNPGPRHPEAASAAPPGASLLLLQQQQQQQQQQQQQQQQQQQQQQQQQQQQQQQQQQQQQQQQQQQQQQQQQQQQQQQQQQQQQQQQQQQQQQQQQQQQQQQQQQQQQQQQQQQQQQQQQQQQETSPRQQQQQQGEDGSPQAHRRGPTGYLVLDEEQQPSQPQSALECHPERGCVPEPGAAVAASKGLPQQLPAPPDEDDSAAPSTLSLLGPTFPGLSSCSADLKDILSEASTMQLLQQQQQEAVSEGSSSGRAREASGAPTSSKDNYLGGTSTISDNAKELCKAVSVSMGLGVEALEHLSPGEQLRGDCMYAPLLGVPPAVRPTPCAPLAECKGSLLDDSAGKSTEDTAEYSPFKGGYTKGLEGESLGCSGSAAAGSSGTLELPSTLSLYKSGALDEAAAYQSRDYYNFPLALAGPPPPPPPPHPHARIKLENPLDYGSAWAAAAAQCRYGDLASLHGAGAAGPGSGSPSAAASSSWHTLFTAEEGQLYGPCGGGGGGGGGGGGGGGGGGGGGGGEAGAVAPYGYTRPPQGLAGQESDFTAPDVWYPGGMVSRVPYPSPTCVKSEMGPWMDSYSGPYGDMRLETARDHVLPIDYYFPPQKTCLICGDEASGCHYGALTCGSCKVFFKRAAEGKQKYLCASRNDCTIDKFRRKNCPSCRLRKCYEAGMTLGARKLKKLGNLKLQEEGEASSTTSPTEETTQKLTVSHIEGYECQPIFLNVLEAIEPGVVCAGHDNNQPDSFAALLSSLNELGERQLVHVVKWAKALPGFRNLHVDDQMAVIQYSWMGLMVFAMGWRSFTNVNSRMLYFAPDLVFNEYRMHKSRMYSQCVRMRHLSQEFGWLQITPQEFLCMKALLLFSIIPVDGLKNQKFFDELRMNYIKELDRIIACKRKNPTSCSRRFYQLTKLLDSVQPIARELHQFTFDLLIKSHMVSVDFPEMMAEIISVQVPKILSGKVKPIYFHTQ
Experimental: as §1, §2

[5] = tested on: AR; test: AR degradation in hiPSC myotubes in the presence of dihydrotestosterone (DHT); type: cell-based, human
Source text: FIG. 11 is a representative dose response curve showing mean AR concentration in DMSO treated cells plotted against Compound A concentration in SBMA patient-derived hiPSC lines differentiated into myotubes.
Control and SBMA hiPSCs were differentiated into myotubes as previously described (Caron, L. et al. 2016, STEM CELLS Transl. Med. 5, 1145-1161) using the skeletal muscle differentiation kit (Amsbio). hiPSCs were dissociated to single cells using Accutase and plated on Geltrex-coated 10 cm culture plates at a density of 200,000 cells per plate with SBMA hiPSCs in skeletal muscle induction media (SKM01, AMSBIO). Media changes were performed every second day until cells were confluent (˜7 days). The resulting myogenic precursor cells were then dissociated to single cells using Accutase and replated on Matrigel-coated 24-well tissue culture plate with 500 μL of cells at 35,000 cells per mL in skeletal myoblast media (SKM02, AMSBIO). Half media changes were performed every second day until myoblasts reached confluence (˜7 days). The media was then switched to myotube medium (SKM03, ASMBIO). Media changes every second day until myotube formation was confirmed by microscopy. […] AR protein was measured by capillary electrophoresis. […]

[6] = LABC, 11 weeks of age, chow approx. 15 mg/kg

In the case of `CC(C)N(CC1CCN(c2ncc(C(=O)N[C@H]3C(C)(C)[C@H](Oc4ccc(C#N)c(Cl)c4)C3(C)C)cn2)CC1)[C@H]1C[C@H](Oc2ccc3c(c2)C(=O)N(C2CCC(=O)NC2=O)C3=O)C1` (stereo partly shown) [Compound A, N-((1r,3r)-3-(3-chloro-4-cyanophenoxy)-2,2,4,4-tetramethylcyclobutyl)-2-(4-((((1r,3r)-3-((2-(2,6-dioxopiperidin-3-yl)-1,3-dioxoisoindolin-5-yl)oxy)cyclobutyl)(isopropyl)amino)methyl)piperidin-1-yl)pyrimidine-5-carboxamide], the “reduction of PDE6D by Western blot” value [1] was roughly 50%, the “reduction of endogenous mouse (WT) AR in LABC vs vehicle” value [2, 6] was 77% and the “reduction of WT AR in quadriceps vs vehicle” value ([2]; quadriceps) was 65%. For the same compound, the “reduction of monomeric hAR100Q (polyQ-AR) in LABC vs vehicle” value [3, 6] was 70%, the “reduction of polyQ-AR (hAR100Q) in quadriceps” value ([3]; quadriceps) was 43% and the “AR/polyQ-AR degraded in the quadriceps muscle” value ([3]; quadriceps, AR and polyQ-AR together) was 40-60%. For the same compound, the “reduction of high molecular weight (aggregated) hAR100Q in LABC” value ([4]; LABC, 11 weeks of age) was “did not induce degradation; also recorded: did not reach significance”, the “reduction of high molecular weight polyQ-AR (HMW hAR100Q) in quadriceps” value ([4]; quadriceps) was “trended towards a reduction” and the DC50 ([5]; DHT present at 500 pM, read-out: DC50 in hiPSC myotubes with DHT) was 5.9 nM. The DC50 ([5]; without any DHT (0 pM), read-out: DC50 in hiPSC myotubes without DHT) was 0.5 nM.
